Holding throughout (format): cell-based
In test [1] the test system is amiloride-sensitive sodium conductance (ENaC). The test is described as follows: Whole-cell patch clamp of rabbit collecting duct principal cells. To be noted: for mean current measured at EK+ (−80 mV): statistical analysis, aldosterone, then vasopressin, then amiloride. Here is the method:
(§1) Collecting ducts were manually dissected from sagittal slices obtained from 50 gram Sprague Dawley rats and 0.5 Kg New Zealand White rabbits. The dissected collecting ducts were suspended in RPMI 1640 culture medium supplemented with 1.5 mg/ml collagenase A (Boehringer Mannheim, Mannhein, Germany). The collecting ducts were enzymatically digested for 1.5 hours to isolate individual cells. The digested cells were washed in serum-free RPMI and placed in a perfusion chamber mounted on the stage of an inverted microscope. The whole-cell patch clamp configuration was established and initial current measurements were made in un-supplemented RPMI. […] To block the cytosolic mineralocorticoid receptor, some cells were suspended in RPMI supplemented with spironolactone for 1 hour prior to whole-cell patch clamping.
Studies were conducted using both whole cell patch clamp and single channel patch clamp techniques. Whole-cell clamped rabbit principal cells were exposed to 100 nM aldosterone. […] No cells failed both tests. […] ENa+ was approximately +60 mV with the ionic gradients present. The activated current was carried exclusively by sodium. In a separate set of experiments rabbit principal cells were re-suspended in RPMI supplemented with 1 μM spironolactone for 1 hour prior to use for whole-cell patch clamp. This concentration is sufficient to inhibit completely the mineralocorticoid receptor.

Another test addresses T1, ENaC (Homo sapiens, UniProt P37088+P51168+P51170).
T1 construct: Human and canine lymphocytes were isolated from peripheral blood samples by differential centrifugation over ficoll paque; endogenous in cells; host or cells: human peripheral blood lymphocytes
T1 sequence (P37088 1-669): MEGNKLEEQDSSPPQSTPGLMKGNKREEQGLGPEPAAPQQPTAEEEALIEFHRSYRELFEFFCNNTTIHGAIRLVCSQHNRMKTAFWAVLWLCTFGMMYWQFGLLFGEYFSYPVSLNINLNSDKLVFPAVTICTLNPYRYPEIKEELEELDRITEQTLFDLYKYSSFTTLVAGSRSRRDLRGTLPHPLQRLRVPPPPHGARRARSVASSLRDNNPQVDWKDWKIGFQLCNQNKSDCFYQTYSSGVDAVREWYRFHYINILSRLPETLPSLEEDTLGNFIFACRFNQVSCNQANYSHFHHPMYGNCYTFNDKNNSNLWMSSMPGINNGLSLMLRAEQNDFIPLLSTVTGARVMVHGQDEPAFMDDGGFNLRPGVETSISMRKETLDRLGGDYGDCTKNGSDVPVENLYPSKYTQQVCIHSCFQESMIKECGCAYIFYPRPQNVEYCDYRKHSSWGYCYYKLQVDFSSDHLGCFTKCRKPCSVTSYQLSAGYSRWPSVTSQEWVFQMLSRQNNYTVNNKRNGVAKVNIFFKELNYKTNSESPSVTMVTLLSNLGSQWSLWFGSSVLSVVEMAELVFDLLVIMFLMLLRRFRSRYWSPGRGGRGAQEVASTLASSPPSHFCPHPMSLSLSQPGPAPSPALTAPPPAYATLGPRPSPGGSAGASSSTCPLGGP
T1 sequence (P51168 1-640): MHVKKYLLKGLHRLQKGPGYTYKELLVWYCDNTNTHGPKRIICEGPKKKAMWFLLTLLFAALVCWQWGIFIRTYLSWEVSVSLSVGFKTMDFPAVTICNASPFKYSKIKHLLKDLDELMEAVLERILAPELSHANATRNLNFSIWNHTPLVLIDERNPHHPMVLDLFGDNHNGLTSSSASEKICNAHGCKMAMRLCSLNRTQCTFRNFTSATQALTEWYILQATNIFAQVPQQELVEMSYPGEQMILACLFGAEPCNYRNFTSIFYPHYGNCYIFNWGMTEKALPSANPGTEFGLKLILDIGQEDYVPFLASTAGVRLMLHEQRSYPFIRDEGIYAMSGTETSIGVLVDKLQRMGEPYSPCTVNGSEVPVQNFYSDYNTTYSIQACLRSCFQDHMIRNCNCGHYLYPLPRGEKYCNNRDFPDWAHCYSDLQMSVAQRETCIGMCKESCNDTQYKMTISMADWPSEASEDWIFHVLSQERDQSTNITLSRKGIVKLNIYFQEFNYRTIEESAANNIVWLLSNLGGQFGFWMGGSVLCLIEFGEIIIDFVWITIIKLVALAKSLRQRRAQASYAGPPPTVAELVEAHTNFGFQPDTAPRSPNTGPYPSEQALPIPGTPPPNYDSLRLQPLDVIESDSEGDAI
T1 sequence (P51170 1-649): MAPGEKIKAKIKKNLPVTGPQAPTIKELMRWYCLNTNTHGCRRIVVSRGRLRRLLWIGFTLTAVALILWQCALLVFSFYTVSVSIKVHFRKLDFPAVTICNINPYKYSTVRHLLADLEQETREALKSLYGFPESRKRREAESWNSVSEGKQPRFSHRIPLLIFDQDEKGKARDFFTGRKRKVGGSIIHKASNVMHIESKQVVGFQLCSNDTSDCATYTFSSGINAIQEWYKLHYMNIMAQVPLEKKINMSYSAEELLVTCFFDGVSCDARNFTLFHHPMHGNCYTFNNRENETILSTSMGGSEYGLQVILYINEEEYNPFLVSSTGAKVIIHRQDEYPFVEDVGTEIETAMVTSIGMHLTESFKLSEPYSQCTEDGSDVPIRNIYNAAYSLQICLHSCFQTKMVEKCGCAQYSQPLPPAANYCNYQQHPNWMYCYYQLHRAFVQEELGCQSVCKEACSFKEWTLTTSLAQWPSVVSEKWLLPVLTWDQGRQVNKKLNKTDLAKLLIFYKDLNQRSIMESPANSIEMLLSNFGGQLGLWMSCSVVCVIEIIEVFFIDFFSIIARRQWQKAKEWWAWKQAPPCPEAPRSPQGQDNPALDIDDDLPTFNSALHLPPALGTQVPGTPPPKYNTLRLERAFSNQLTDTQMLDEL
The test is described as follows: Single channel patch clamp (outside-out patches) of human lymphocytes. Here is the method:
Human and canine lymphocytes were isolated from peripheral blood samples by differential centrifugation over ficoll paque (Pharmacia Biotech, Uppsala, Sweden). The cells were washed and re-suspended in serum-free RPMI. Subsequently, suspended cells were placed in the perfusion chamber. Whole-cell patch clamp and testing of aldosterone were carried out using identical techniques and protocols as described for principal cells. Rabbit, rat and mouse lymphocytes were obtained by mincing sections of spleen and manually freeing the cells by agitation. The cell suspensions were then centrifuged over ficoll paque and treated identically to the lymphocytes obtained from peripheral blood. All procedures were carried out under the guidelines for animal use and with institutional board approval for human use.
The “ragged” morphology of the whole-cell currents in principal cells and lymphocytes has generated some concern about the identity of the channels that are activated by aldosterone. To address this concern, single channel characteristics of the sodium conductors expressed by human lymphocytes were studied.
To test the amiloride sensitivity of the single channels, outside-out patches were formed because amiloride only interacts with the outside surface of the channels. A “rundown” phenomena typical of ENaC in the inside-out patch experiments was noted.

For test [2], the target named is T2, amiloride-sensitive sodium conductance (ENaC) (Rattus norvegicus, UniProt P37089+P37090+P37091).
T2 construct: Collecting ducts were manually dissected from sagittal slices obtained from 50 gram Sprague Dawley rats and 0.5 Kg New Zealand White rabbits; from tissue; host or cells: principal cells isolated from kidney collecting ducts of Sprague Dawley rats
T2 sequence (P37089 1-698): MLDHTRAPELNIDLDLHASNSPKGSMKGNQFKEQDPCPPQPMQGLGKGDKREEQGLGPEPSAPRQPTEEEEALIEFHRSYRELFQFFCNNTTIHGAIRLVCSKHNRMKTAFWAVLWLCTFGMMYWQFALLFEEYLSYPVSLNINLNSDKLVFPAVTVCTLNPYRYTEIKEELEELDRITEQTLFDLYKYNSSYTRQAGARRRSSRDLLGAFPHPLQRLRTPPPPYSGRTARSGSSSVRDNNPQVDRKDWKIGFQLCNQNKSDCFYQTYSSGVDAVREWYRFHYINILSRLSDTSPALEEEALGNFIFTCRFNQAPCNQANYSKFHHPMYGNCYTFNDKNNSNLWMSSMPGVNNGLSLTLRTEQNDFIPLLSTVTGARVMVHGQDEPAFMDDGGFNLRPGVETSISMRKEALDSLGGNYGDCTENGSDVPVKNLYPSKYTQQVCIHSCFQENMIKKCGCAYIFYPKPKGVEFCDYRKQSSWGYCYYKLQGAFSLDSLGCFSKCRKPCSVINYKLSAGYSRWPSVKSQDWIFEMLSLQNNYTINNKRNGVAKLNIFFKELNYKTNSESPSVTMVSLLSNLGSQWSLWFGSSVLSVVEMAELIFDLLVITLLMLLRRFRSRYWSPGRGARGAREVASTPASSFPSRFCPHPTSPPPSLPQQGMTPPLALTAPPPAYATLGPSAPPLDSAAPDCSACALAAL
T2 sequence (P37090 1-638): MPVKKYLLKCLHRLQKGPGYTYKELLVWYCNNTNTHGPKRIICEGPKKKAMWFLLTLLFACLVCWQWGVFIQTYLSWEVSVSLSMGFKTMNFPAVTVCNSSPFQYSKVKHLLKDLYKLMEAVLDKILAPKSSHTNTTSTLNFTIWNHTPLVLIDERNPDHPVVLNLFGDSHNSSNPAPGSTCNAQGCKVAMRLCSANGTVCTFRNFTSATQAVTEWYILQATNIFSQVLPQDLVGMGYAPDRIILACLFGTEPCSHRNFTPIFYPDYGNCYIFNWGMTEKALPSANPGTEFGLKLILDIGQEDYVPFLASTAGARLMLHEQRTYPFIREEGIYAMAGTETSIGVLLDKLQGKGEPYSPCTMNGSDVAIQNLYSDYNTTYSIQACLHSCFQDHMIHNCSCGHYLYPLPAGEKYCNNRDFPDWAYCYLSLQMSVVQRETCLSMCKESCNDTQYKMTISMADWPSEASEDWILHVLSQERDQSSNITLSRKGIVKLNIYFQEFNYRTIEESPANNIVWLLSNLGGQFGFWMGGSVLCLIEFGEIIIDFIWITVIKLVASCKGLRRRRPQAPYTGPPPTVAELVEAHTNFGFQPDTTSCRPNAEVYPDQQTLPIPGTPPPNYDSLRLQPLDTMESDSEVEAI
T2 sequence (P37091 1-650): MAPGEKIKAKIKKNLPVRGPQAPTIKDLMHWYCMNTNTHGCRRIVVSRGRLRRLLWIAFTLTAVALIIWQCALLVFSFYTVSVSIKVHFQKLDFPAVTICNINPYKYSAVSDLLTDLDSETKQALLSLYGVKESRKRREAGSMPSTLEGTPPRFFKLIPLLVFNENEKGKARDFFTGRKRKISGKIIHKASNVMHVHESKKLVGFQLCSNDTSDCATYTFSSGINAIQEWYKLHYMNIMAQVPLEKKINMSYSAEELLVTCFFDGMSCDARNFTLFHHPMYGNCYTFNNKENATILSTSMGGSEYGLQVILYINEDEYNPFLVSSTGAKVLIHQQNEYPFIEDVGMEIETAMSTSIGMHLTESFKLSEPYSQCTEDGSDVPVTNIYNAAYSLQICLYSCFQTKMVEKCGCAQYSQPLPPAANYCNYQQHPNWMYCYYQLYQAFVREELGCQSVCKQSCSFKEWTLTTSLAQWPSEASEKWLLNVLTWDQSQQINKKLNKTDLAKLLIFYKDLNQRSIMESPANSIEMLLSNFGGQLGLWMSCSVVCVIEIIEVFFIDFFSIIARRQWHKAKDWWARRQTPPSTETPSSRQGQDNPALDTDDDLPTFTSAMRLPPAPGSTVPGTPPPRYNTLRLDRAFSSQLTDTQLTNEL
The test is described as follows: Whole-cell patch clamp of rat collecting duct principal cells. To be noted: for mean current measured at EK+ (−80 mV): statistical analysis, then vasopressin, then amiloride. The procedure: as §1
The same protocol was carried out on rabbit principal cells.

Molecules are shown by their SMILES.

For the molecule `C[C@]12CCC(=O)C=C1CC[C@@H]1[C@@H]2[C@@H](O)C[C@]2(C=O)[C@@H](C(=O)CO)CC[C@@H]12` [aldosterone], in test [1] (rabbit principal cells pre-treated with 1 μM spironolactone, 100 nM aldosterone), the “effect on inward currents with mineralocorticoid receptor inhibition” value is on record as “specifically activated the inward currents”. For the same molecule, in test [1] (rabbit principal cells, 100 nM aldosterone in bath), the “effect on inward currents at hyperpolarized membrane potential clamp voltages” value is listed as “specific activation of the inward currents”. Besides, the “mean current measured at EK+ (−80 mV)” value in test [1] (rabbit principal cells) is “significantly increased the current”; in test [2] (aldosterone), “did not alter the current”. Further, the “time to aldosterone-stimulated ENaC activation” value in test [1] (rabbit principal cells, whole-cell clamp, ATP-supplemented pipette solution) is “within seconds”. Further, the unitary conductance result on ENaC (cells treated with 100 nM aldosterone) was “unchanged”. Also, the “acute effect on principal cells” value in test [2] (aldosterone) is listed as “no acute affect”.
Regarding `N=C(N)NC(=O)c1nc(Cl)c(N)nc1N` [amiloride], the “inhibition of aldosterone-activated currents” value in test [1] (rabbit principal cells, 2 μM amiloride in the continued presence of aldosterone) is listed as “inhibited completely”. The “mean current measured at EK+ (−80 mV)” value is “returned the conductance to the basal level” in test [1] (rabbit principal cells) and “restored the current to the basal level” in test [2] (aldosterone). For the same molecule, the single channel activity entry on ENaC (amiloride 2 μM) was “completely abolished”; at ENaC (cells treated with 100 nM aldosterone, amiloride 2 μM final concentration in bath), “virtually abolished”. In addition, on ENaC (amiloride concentration close to IC50 ([…] nM)), the “inhibition of single channels” value is given as “Incomplete inhibitory action”.
As to `CC(=O)S[C@@H]1CC2=CC(=O)CC[C@]2(C)[C@H]2CC[C@@]3(C)[C@@H](CC[C@@]34CCC(=O)O4)[C@H]12` [spironolactone], the “effect on inward currents” value in test [1] (rabbit principal cells, 1 μM spironolactone for 1 hour prior to whole-cell patch clamp) is “no effect on the inward currents”.
Take `NC(=O)CC[C@@H]1NC(=O)[C@H](Cc2ccccc2)NC(=O)[C@H](Cc2ccc(O)cc2)NC(=O)[C@@H](N)CSSC[C@@H](C(=O)N2CCC[C@H]2C(=O)N[C@@H](CCCN=C(N)N)C(=O)NCC(N)=O)NC(=O)[C@H](CC(N)=O)NC1=O` [vasopressin]: the entries for the “mean current measured at EK+ (−80 mV)” value in test [1] (rabbit principal cells) and in test [2] (aldosterone) were “had no additional effect” and “increased it significantly”, respectively. Moreover, in test [1] (rabbit principal cells, vasopressin after aldosterone), the “further activation of inward currents after ENaC activation by aldosterone” value is “did not activate the inward currents any further”. Further, the “activation of amiloride sensitive inward currents” value in test [2] (250 nM vasopressin after aldosterone) was “acute specific activation of the amiloride sensitive inward currents”.

The values are drawn from US6586416B2, “Methods of treatment using an epithelial sodium channel blocker and an inhibitor of the mineralocorticoid receptor” (priority 2001, dated 2003).
